# Laboratory results reported in patent US11413278B2, “Compounds and methods for promoting stress resistance” (priority 2015, dated 2022).
# “Also recorded” adds a separate entry of the source. Read-outs that look alike come from different tables or passages of the source.
# Tests used:
# Type in all cases: cell-based, human
# [1] = tested on: mTOR; assay: mTOR inhibition (RPS6 phosphorylation status), In-Cell Western
# Method: In-Cell Western assays were performed, following a standard immuno-staining protocol. Briefly, WI-38 cells were treated with small molecules for 24 hrs, and then processed and incubated with primary antibody cocktail (Cell Signaling, mouse anti-RPS, 1:25; rabbit-anti-pRPS6-(Ser-235/236), 1:100) overnight at 4° C. Next day, samples were processed and incubated with fluorophore-conjugated secondary antibodies (Cell Signaling, DyLight 680-goat anti-mouse, 1:500; DyLight 800-goat anti-rabbit, 1:1,000). Images were collected on an Odyssey Imager (LI-COR) and analyzed with the Image Studio Lite software (version 5.0.21).
# Mammalian target of rapamycin (mTOR) is a crucial regulator of cell growth and metabolism and has been implicated in aging and many diseases, including cancer, diabetes and neurological diseases (Dazert and Hall, 2011; Zoncu et al., 2011). […] In addition, the anti-diabetes drug metformin (Kalender et al., 2010), as well as other AMPK activators such as 2-deoxy-D-glucose (Inoki et al., 2003) and AICAR (Shaw et al., 2004), could inhibit mTORC1. Applicants examined the effects of our molecules (at three doses, 5 μM, 10 μM and 20 μM) on the phosphorylation status of ribosomal protein S6 (RPS6), a readout of mTOR activity, to ask whether they could inhibit mTOR.
# In-Cell Western assays were performed, following the same procedures to analyze DNA-damage markers. WI-38 cells were incubated with small molecules for 24 hrs, and then processed and incubated with primary antibody cocktail (mouse anti-RPS, 1:25; rabbit-anti-pRPS6, 1:100) overnight at 4° C. Next day, samples were processed and incubated with fluorophore-conjugated secondary antibodies (goat anti-mouse, 1:500; goat anti-rabbit, 1:1,000) in antibody dilution buffer. Images were collected on an Odyssey Imager (LI-COR) and analyzed with the Image Studio Lite software.
# [2] = tested on: FOXO3; assay: qPCR analysis of FOXO3-regulated genes; details: for fold induction at 10 µM: Homo sapiens; for K = Sestrin induction: score
# In short: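 WI-38 cells treated with compound at 10 μM for 24 h, followed by Cells-to-Ct RT-qPCR of FOXO3 target genes normalised to B2M, PPIA and GAPDH. FOXO3 or NRF2 dependence tested by prior 10 nM siRNA knockdown (36 h transfection, compound added ~24 h after replating).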
# [3] = tested on: NRF2; assay: qPCR analysis of NRF2-regulated genes; details: for fold induction at 10 µM: Homo sapiens
# In short: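 WI-38 cells treated with compound at 10 μM for 24 hrs, then processed by Cells-to-Ct for RNA isolation, RT and qPCR of NRF2-regulated genes (HMOX1, NQO1, GCLC, GSTM1). Expression normalized to B2M, PPIA and GAPDH; siRNA knockdown of FOXO3 or NRF2 (10 nM) preceded treatment in some runs.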
# [4] = 24 h, Assay 10(m), at 10 uM, qPCR, read-out: Induction of FOXO3-regulated genes: TXNIP normalized fold-change
# [5] = 10 μM, 24 hrs, WI-38 cells, qPCR, normalized to B2M, n = 4, read-out: GADD45A expression, normalized fold change (FOXO3-regulated gene)
# [6] = 10 μM, 24 hrs, WI-38 cells, qPCR, normalized to B2M, n = 4, read-out: TXNIP expression, normalized fold change (FOXO3-regulated gene)
# [7] = WI-38 cells, 10 μM, 24 hrs, n=4, qPCR normalized by B2M, read-out: DDB1 Normalized fold change
# [8] = WI-38 cells, 10 μM, 24 hrs, n=4, qPCR normalized by B2M, read-out: GADD45A Normalized fold change
# [9] = WI-38 cells, 10 μM, 24 hrs, n=4, qPCR normalized by B2M, read-out: SESN1 Normalized fold change
# [10] = fold change, qPCR, WI-38 cells, 10 μM, 24 hrs, read-out: Summary of effects on FOXO3-regulated genes: GADD45A
# [11] = fold change, qPCR, WI-38 cells, 10 μM, 24 hrs, read-out: Summary of effects on FOXO3-regulated genes: TXNIP
# [12] = qPCR, WI-38 cells, 10 μM, n=4, 24 hrs, normalized by B2M, read-out: CAT Normalized fold change
# [13] = qPCR, WI-38 cells, 10 μM, n=4, 24 hrs, normalized by B2M, read-out: SOD2 Normalized fold change
# [14] = qPCR, WI-38 cells, 10 μM, n=4, 24 hrs, normalized by B2M, read-out: TXNIP Normalized fold change
# [15] = 24 h, Assay 12(o), at 10 uM, qPCR, read-out: Induction of NRF2-regulated genes: GCLC normalized fold-change
# [16] = 24 h, Assay 12(o), at 10 uM, qPCR, read-out: Induction of NRF2-regulated genes: HMOX1 normalized fold-change
# [17] = rounded fold change, WI-38 cells, 10 μM, 24 hrs (RP11 for Gr-1D, RP29 for Gr-4D), read-out: Summary of effects on NRF2-regulated genes: HMOX1
# [18] = rounded fold change, WI-38 cells, 10 μM, 24 hrs, read-out: Summary of effects on NRF2-regulated genes: GCLC
# [19] = 10 μM, 24 hrs, WI-38 cells, qPCR, normalized to B2M, n = 4, read-out: GCLC expression, normalized fold change (NRF2-regulated gene)
# [20] = 10 μM, 24 hrs, WI-38 cells, qPCR, normalized to B2M, n = 4, read-out: HMOX1 expression, normalized fold change (NRF2-regulated gene)
# [21] = WI-38 cells, 10 μM, 24 hrs, n=4, qPCR normalized by B2M, read-out: GCLC Normalized fold change
# [22] = WI-38 cells, 10 μM, 24 hrs, n=4, qPCR normalized by B2M, read-out: GSTM1 Normalized fold change
# [23] = WI-38 cells, 10 μM, 24 hrs, n=4, qPCR normalized by B2M, read-out: HMOX1 Normalized fold change
# [24] = WI-38 cells, 10 μM, 24 hrs, n=4, qPCR normalized by B2M, read-out: NQO1 Normalized fold change
smiles,measurement,setting,value
N=C1S/C(=C\c2cn(-c3ccccc3)nc2-c2cccs2)C(=O)N1c1nccs1 [Gr-6C],G = mTOR down-regulation,[1]; 2-point score,0
same,G = mTOR down-regulation,[1]; summary score,0
same,E = Potential FOXO3 Activation,[2]; 2-point score,0
same,fold induction at 10 µM,"[2]; 24 h, Assay 10(m), at 10 uM, qPCR, read-out: Induction of FOXO3-regulated genes: SESN1 normalized fold-change",1.42
same,fold induction at 10 µM,[2]; [4],0.57
same,fold induction at 10 µM,[2]; [5],2.17
same,fold induction at 10 µM,"[2]; 10 μM, 24 hrs, WI-38 cells, qPCR, normalized to B2M, n = 4, read-out: SESN1 expression, normalized fold change (FOXO3-regulated gene)",1.42
same,fold induction at 10 µM,[2]; [6],0.57
same,fold induction at 10 µM,[2]; [7],1.22
same,fold induction at 10 µM,[2]; [8],2.17
same,fold induction at 10 µM,[2]; [9],1.42
same,fold induction at 10 µM,[2]; [10],2.17
same,fold induction at 10 µM,"[2]; fold change, qPCR, WI-38 cells, 10 μM, 24 hrs, read-out: Summary of effects on FOXO3-regulated genes: SESN1",1.42
same,fold induction at 10 µM,[2]; [11],0.57
same,fold induction at 10 µM,[2]; [12],1.13
same,fold induction at 10 µM,[2]; [13],1.01
same,fold induction at 10 µM,[2]; [14],0.568
same,K = Sestrin induction,[2],0
same,E = Potential FOXO3 Activation,[2]; summary score,0
same,F = Potential NRF2 Activation,[3]; 2-point score,0
same,fold induction at 10 µM,[3]; [15],0.33
same,fold induction at 10 µM,[3]; [16],2.09
same,fold induction at 10 µM,[3]; [17],2.09
same,fold induction at 10 µM,[3]; [18],0.33
same,fold induction at 10 µM,[3]; [19],0.33
same,fold induction at 10 µM,[3]; [20],2.09
same,fold induction at 10 µM,[3]; [21],0.331
same,fold induction at 10 µM,[3]; [22],0.914
same,fold induction at 10 µM,[3]; [23],2.09
same,fold induction at 10 µM,[3]; [24],0.87
same,F = Potential NRF2 Activation,[3]; summary score,0
O=C(NCc1cccnc1)/C(=C\c1cccc(Oc2ccccc2)c1)S(=O)(=O)c1ccccc1 [Gr-7A],G = mTOR down-regulation,[1]; 2-point score,2
same,mTOR down-regulation by p-RPS6 assays,"[1]; Assay 14(q), at 5 uM, 10 uM & 20 uM",YES
same,"Exp. 1, normalized reduction in p-RPS6/RPS6 ratio","[1]; Exp. 1, In-Cell Western, n=4","~61% (−), at 20 μM"
same,"Exp. 1, normalized reduction in p-RPS6/RPS6 ratio","[1]; Exp. 1, at 10 μM, In-Cell Western, n=4","~60% (−), at 10 μM;"
same,"Exp. 2, normalized reduction in p-RPS6/RPS6 ratio","[1]; Exp. 2, at 10 μM, In-Cell Western, n=4","~75% (−), at 10 μM"
same,"Exp. 3, normalized reduction in p-RPS6/RPS6 ratio","[1]; Exp. 3, In-Cell Western, n=4","~92% (−), at 20 μM"
same,"Exp. 3, normalized reduction in p-RPS6/RPS6 ratio","[1]; Exp. 3, at 5 μM, In-Cell Western, n=4","~50% (−), at 5 μM;"
same,"Exp. 3, normalized reduction in p-RPS6/RPS6 ratio","[1]; Exp. 3, at 10 μM, In-Cell Western, n=4","~89% (−), at 10 μM;"
same,"mTOR inhibition (p-RPS6/RPS6), qualitative",[1]; In-Cell Western,mTOR-inhibiting activities; also recorded: consistently reduced the ratios
same,G = mTOR down-regulation,[1]; summary score,2
same,"SOD2 expression, normalized fold change (FOXO3-regulated gene)","[2]; 10 μM, 24 hrs, WI-38 cells, qPCR, normalized to B2M, n = 4","SOD2 1.78, fold"
same,E = Potential FOXO3 Activation,[2]; 2-point score,2
same,"Potential FOXO3 Activation (>=2 target genes induced, by >=1.5-fold)",[2]; Assay 11(n),YES
same,fold induction at 10 µM,"[2]; 24 h, Assay 10(m), at 10 uM, qPCR, read-out: Induction of FOXO3-regulated genes: GADD45A normalized fold-change",1.91
same,fold induction at 10 µM,"[2]; 24 h, Assay 10(m), at 10 uM, qPCR, read-out: Induction of FOXO3-regulated genes: SOD2 normalized fold-change",1.78
same,fold induction at 10 µM,[2]; [4],0.12
same,fold induction at 10 µM,[2]; [5],1.91
same,fold induction at 10 µM,[2]; [6],0.12
same,fold induction at 10 µM,[2]; [7],0.979
same,fold induction at 10 µM,[2]; [8],1.91
same,fold induction at 10 µM,[2]; [9],1.14
same,fold induction at 10 µM,[2]; [10],1.91
same,fold induction at 10 µM,[2]; [11],0.12
same,fold induction at 10 µM,[2]; [12],1.15
same,fold induction at 10 µM,[2]; [13],1.78
same,fold induction at 10 µM,[2]; [14],0.12
same,Summary of effects on FOXO3-regulated genes: SOD2,"[2]; fold change, qPCR, WI-38 cells, 10 μM, 24 hrs","SOD2 1.78,"
same,K = Sestrin induction,[2],0
same,E = Potential FOXO3 Activation,[2]; summary score,2
same,F = Potential NRF2 Activation,[3]; 2-point score,0
same,fold induction at 10 µM,[3]; [15],0.6
same,fold induction at 10 µM,[3]; [16],15.2
same,fold induction at 10 µM,"[3]; 24 h, Assay 12(o), at 10 uM, qPCR, read-out: Induction of NRF2-regulated genes: NQO1 normalized fold-change",0.78
same,fold induction at 10 µM,[3]; [17],15.2
same,fold induction at 10 µM,"[3]; rounded fold change, WI-38 cells, 10 μM, 24 hrs (RP29 for Gr-4D), read-out: Summary of effects on NRF2-regulated genes: NQO1",0.78
same,fold induction at 10 µM,[3]; [18],0.6
same,fold induction at 10 µM,[3]; [19],0.6
same,fold induction at 10 µM,[3]; [20],15.2
same,fold induction at 10 µM,"[3]; 10 μM, 24 hrs, WI-38 cells, qPCR, normalized to B2M, n = 4, read-out: NQO1 expression, normalized fold change (NRF2-regulated gene)",0.78
same,fold induction at 10 µM,[3]; [21],0.602
same,fold induction at 10 µM,[3]; [22],1.09
same,fold induction at 10 µM,[3]; [23],15.2
same,fold induction at 10 µM,[3]; [24],0.779
same,F = Potential NRF2 Activation,[3]; summary score,0
